Assay results as given in article PMC5889867, “Inhibition of Protein Aggregation by Several Antioxidants” (Oxidative Medicine and Cellular Longevity, 2018).
Where “and” joins values, the source holds several entries; their conditions need not be identical. Equal values may be shown once.

These molecules were tested against T1, human stefin B (stB wt) (Homo sapiens, UniProt P04080, C3S) (assay: intrinsic Tyr fluorescence quenching, modified Stern-Volmer). Conditions: 34 uM protein, 25 C, excitation 277 nm.
T1 construct: gene CSTB; Cys3 replaced by Ser
T1 sequence (P04080 1-98 C3S): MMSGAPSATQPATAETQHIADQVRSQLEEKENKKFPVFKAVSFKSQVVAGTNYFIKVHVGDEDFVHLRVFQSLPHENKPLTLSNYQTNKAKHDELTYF
Assay type: binding

Molecule	Ka
O=c1c(O)c(-c2ccc(O)c(O)c2)oc2cc(O)cc(O)c12 [quercetin, 2-(3,4-dihydroxyphenyl)-3,5,7-trihydroxy-4H-chromen-4-one]	each compound also acts as a quencher of tyrosine fluorescence
CC(=O)N[C@@H](CS)C(=O)O [NAC, (2R)-2-acetamido-3-sulfanyl propanoic acid]	each compound also acts as a quencher of tyrosine fluorescence
Oc1ccc(/C=C/c2cc(O)cc(O)c2)cc1 [resveratrol, 3,5,40-trihydroxystilbene]	each compound also acts as a quencher of tyrosine fluorescence
O=C1O[C@H]([C@@H](O)CO)C(O)=C1O [vitamin C, (2R)-2-[(1S)-1,2-dihydroxyethyl]-3,4-dihydroxy-2H-furan-5-one]	each compound also acts as a quencher of tyrosine fluorescence
COc1cc(/C=C/C(=O)CC(=O)/C=C/c2ccc(O)c(OC)c2)ccc1O [curcumin, (1E,6E)-1,7-bis(4-hydroxy-3-methoxyphenyl)hepta-1,6-diene-3,5-dione]	binding constants show that curcumin binds more tightly than do other antioxidants studied here

The molecules below were run against human stefin B (stB wt), recombinant, Cys 3 replaced with Ser (human) (UniProt P04080) (assay: cross-linking; stB wt fibrillation mixture (34 uM protein, 0.015 M acetate buffer, 0.15 M NaCl, pH 4.8, 10% v/v TFE, room temperature) aged 24 hours, with or without antioxidants (NAC, vit C and others); cross-linked with 50-fold molar excess of BS3, then SDS-PAGE). Conditions: not given.

Molecule	stoichiometry N
human stefin B (stB wt), recombinant, Cys 3 replaced with Ser (from UniProt P04080 8-98) (natural protein)	2 and > 4
